For 23 compounds, EC50 results are on record in patent US20230062119A1, “USE OF BIOMARKERS IN IDENTIFYING PATIENTS THAT WILL BE RESPONSIVE TO TREATMENT WITH A PRMT5 INHIBITOR” (Merck Sharp & Dohme LLC, priority 2019, published 2023).

Structures are written as SMILES.

T1 sequence (O14744 whole entry): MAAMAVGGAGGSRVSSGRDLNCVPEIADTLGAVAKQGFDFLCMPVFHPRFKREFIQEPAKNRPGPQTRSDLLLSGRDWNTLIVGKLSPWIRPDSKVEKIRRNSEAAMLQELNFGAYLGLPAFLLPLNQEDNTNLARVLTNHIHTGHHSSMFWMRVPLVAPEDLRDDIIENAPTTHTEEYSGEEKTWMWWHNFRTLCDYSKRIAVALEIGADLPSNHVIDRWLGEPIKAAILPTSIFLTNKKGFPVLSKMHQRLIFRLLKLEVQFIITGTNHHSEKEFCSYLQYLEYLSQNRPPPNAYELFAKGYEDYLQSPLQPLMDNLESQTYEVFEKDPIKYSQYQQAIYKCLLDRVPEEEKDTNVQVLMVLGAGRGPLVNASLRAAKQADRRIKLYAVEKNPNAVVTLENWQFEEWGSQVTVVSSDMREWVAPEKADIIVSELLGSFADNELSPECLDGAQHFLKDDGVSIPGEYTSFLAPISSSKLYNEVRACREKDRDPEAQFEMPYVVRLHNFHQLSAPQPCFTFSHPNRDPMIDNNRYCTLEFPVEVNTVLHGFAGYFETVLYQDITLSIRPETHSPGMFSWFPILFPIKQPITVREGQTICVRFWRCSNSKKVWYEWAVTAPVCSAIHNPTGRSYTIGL
T1 sequence (Q9BQA1 whole entry partner): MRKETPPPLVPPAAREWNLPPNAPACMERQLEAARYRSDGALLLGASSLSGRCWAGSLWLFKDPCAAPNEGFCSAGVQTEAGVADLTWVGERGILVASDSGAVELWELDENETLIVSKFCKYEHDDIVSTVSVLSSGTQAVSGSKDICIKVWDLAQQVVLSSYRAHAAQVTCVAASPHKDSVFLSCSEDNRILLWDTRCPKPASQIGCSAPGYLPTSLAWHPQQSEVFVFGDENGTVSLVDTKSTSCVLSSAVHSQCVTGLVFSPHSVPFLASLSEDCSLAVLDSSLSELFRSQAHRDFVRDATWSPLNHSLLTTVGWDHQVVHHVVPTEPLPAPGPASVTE

One assay concerns the target T1, Full-length (FL)-PRMT5-MEP50 enzyme complex (Homo sapiens, UniProt O14744).
T1 construct: Full-length (FL)-PRMT5-MEP50 enzyme complex (recombinant proteins from baculovirus-transfected Sf21 cells: FL-PRMT5; MW=73837 kDa and FL-MEP50; MW=38614); made in house; host or cells: baculovirus-transfected Sf21 insect cells
Description: PRMT5-MEP50 Enzyme Methylation Assay. The conditions noted are these: one EC50: 4 parameters single site sigmoidal model; EC50 1: first value of 7 parameters biphasic model; 1.0 nM PRMT5-MEP50, 75 nM biotinylated peptide, 15 μM SAM; read-out: Enzyme Methylation Assay (EC50 or EC50 1). It is filed as biochemical. An outline of the steps: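 Compound was pre-incubated 60 min at 37°C with 1.0 nM enzyme and 15 μM SAM (final) in 50 mM Bicine pH 8.0, then 75 nM biotinylated H4R3(Me1) peptide was added and reacted 150 min; twenty-point 1:2 titration from 100000 nM, 1% DMSO. Formic acid quench; SAMDI mass spectrometry measured Me1-to-Me2 conversion, EC50 by 4- or 7-parameter regression.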
Broadly, the EC50 is the concentration giving half of the maximal effect. In the case of `Cc1cn([C@@H]2C[C@@H]3[C@H](Cc4cc(F)c5cc(Cl)c(N)nc5c4)CC[C@]3(O)[C@H]2O)c2ncnc(N)c12` [Example 36, (1S,2R,3aR,4S,6aR)-4-[(2-amino-3-chloro-5-fluoroquinolin-7-yl)methyl]-2-(4-amino-5-methyl-7H-pyrrolo[2,3-d]pyrimidin-7-yl)hexahydropentalene-1,6a(1H)-diol], the EC50 is 0.5 nM.

Regarding `Nc1nc2cc(C[C@@H]3CC[C@@]4(O)[C@@H]3O[C@@H](n3ccc5c(N)ncnc53)[C@@H]4O)ccc2cc1C(F)F` [Example 137, (2R,3R,3aS,6S,6aR)-6-((2-amino-3-(difluoromethyl)quinolin-7-yl)methyl)-2-(4-amino-7H-pyrrolo[2,3-d]pyrimidin-7-yl)hexahydro-2H-cyclopenta[b]furan-3,3a-diol], the EC50 stood at 0.5 nM.

On to `Cc1nc(N)c2ccn([C@@H]3O[C@@H]4[C@H](Cc5ccc6cc(Br)c(N)nc6c5)CC[C@]4(O)[C@H]3O)c2n1` [Example 61, (2R,3R,3aS,6S,6aR)-2-(4-amino-2-methyl-7H-pyrrolo[2,3-d]pyrimidin-7-yl)-6-((2-amino-3-bromoquinolin-7-yl)methyl)hexahydro-3aH-cyclopenta[b]furan-3,3a-diol], for which the EC50 came to 0.5 nM.

As for `Nc1ncnc2c1ccn2[C@@H]1O[C@@H]2[C@@H](Oc3ccc4ccc(NCC5CC5)nc4c3)CC[C@]2(O)[C@H]1O` [Example 58, (2R,3R,3aS,6S,6aR)-2-(4-amino-7H-pyrrolo[2,3-d]pyrimidin-7-yl)-6-((2-((cyclopropylmethyl)amino)quinolin-7-yl)oxy)hexahydro-3aH-cyclopenta[b]furan-3,3a-diol], the EC50 amounted to 0.4 nM.

On to `Cc1ncnc2c1ccn2[C@@H]1O[C@@H]2[C@@H](Oc3ccc4cc(Cl)c(N)nc4c3)CC[C@]2(O)[C@H]1O` [Example 112, (2R,3R,3aS,6S,6aR)-6-((2-amino-3-chloroquinolin-7-yl)oxy)-2-(4-methyl-7H-pyrrolo[2,3-d]pyrimidin-7-yl)hexahydro-2H-cyclopenta[b]furan-3,3a-diol], for which the EC50 amounted to 0.6 nM.

On to `CNc1ncnc2c1ccn2[C@@H]1O[C@@H]2[C@H](Cc3ccc4cc(F)c(N)nc4c3)CC[C@]2(O)[C@H]1O` [Example 95, (2R,3R,3aS,6S,6aR)-6-((2-amino-3-fluoroquinolin-7-yl)methyl)-2-(4-(methylamino)-7H-pyrrolo[2,3-d]pyrimidin-7-yl)hexahydro-3aH-cyclopenta[b]furan-3,3a-diol], for which the EC50 came out at 2.8 nM.

With `Cc1ncnc2c1ccn2[C@@H]1O[C@@H]2[C@@H](Oc3ccc4ccc(N)nc4c3)CC[C@]2(O)[C@H]1O` [Example 113, (2R,3R,3aS,6S,6aR)-6-((2-aminoquinolin-7-yl)oxy)-2-(4-methyl-7H-pyrrolo[2,3-d]pyrimidin-7-Yl)hexahydro-2H-cyclopenta[b]furan-3,3a-diol], the EC50 turned out to be 1.1 nM.

For the compound `Nc1nc2cc(O[C@H]3CC[C@@]4(O)[C@@H]3O[C@@H](n3cc(C5CC5)c5c(N)ncnc53)[C@@H]4O)ccc2cc1Br` [Example 52, (2R,3R,3aS,6S,6aR)-6-[(2-amino-3-bromoquinolin-7-yl)oxy]-2-(4-amino-5-cyclopropyl-7H-pyrrolo[2,3-d]pyrimidin-7-yl)hexahydro-3aH-cyclopenta[b]furan-3,3a-diol], the EC50 worked out at 0.5 nM.

With `Cc1ncnc2c1ccn2[C@@H]1O[C@@H]2[C@H](Oc3ccc4cc(Br)c(N)nc4c3)CC[C@]2(O)[C@H]1O` [Example 129, (2R,3R,3aS,6R,6aR)-6-((2-amino-3-bromoquinolin-7-yl)oxy)-2-(4-methyl-7H-pyrrolo[2,3-d]pyrimidin-7-yl)hexahydro-3aH-cyclopenta[b]furan-3,3a-diol], the EC50 worked out at 33.9 nM.

Turning to `Cc1nc(N)c2ccn([C@@H]3C[C@@H]4[C@H](Cc5ccc6cc(Br)c(N)nc6c5)CC[C@]4(O)[C@H]3O)c2n1` [Example 37, (1S,2R,3aR,4S,6aR)-2-(4-amino-2-methyl-7H-pyrrolo[2,3-d]pyrimidin-7-yl)-4-((2-amino-3-bromoquinolin-7-yl)methyl)hexahydropentalene-1,6a(1H)-diol], the EC50 worked out at 0.3 nM.

`C[C@]1(CCc2ccc3cc(Br)c(N)nc3c2)C[C@@H](n2ccc3c(N)ncnc32)[C@H](O)[C@@H]1O` [Example 15, (1S,2R,3S,5R)-3-[2-(2-amino-3-bromo-7-quinolinyl)ethyl]-5-(4-amino-7H-pyrrolo[2,3-d]pyrimidin-7-yl)-3-methyl-1,2-cyclopentanediol]: the EC50 amounted to 0.8 nM.

For `Cc1cn([C@@H]2O[C@@H]3[C@H](Cc4ccc5cc(Cl)c(N)nc5c4)CC[C@]3(O)[C@H]2O)c2ncnc(N)c12` [Example 66, (2R,3R,3aS,6S,6aR)-6-((2-amino-3-chloroquinolin-7-yl)methyl)-2-(4-amino-5-methyl-7H-pyrrolo[2,3-d]pyrimidin-7-yl)hexahydro-3aH-cyclopenta[b]furan-3,3a-diol], the EC50 amounted to 0.3 nM.

As for `Cc1cn([C@@H]2C[C@@H]3[C@H](Cc4ccc5cc(F)c(N)nc5c4)CC[C@]3(O)[C@H]2O)c2ncnc(N)c12` [Example 38, (1S,2R,3aR,4S,6aR)-4-((2-amino-3-fluoroquinolin-7-yl)methyl)-2-(4-amino-5-methyl-7H-pyrrolo[2,3-d]pyrimidin-7-yl)hexahydropentalene-1,6a(1H)-diol], the EC50 is 0.3 nM.

Consider `C[C@]1(COc2ccc3cc(Br)c(N)nc3c2)O[C@@H](n2ccc3c(N)ncnc32)[C@H](O)[C@@H]1O` [Example 13, (2R,3S,4R,5R)-2-(((2-amino-3-bromoquinolin-7-yl)oxy)methyl)-5-(4-amino-7H-pyrrolo[2,3-d]pyrimidin-7-yl)-2-methyltetrahydrofuran-3,4-diol], for which the EC50 was 0.5 nM.

Take `Nc1nc2cc(C[C@@H]3CC[C@@]4(O)[C@@H]3O[C@@H](n3cc(F)c5c(N)ncnc53)[C@@H]4O)ccc2cc1Cl` [Example 68, (2R,3R,3aS,6S,6aR)-6-((2-amino-3-chloroquinolin-7-yl)methyl)-2-(4-amino-5-fluoro-7H-pyrrolo[2,3-d]pyrimidin-7-yl)hexahydro-3aH-cyclopenta[b]furan-3,3a-diol]: the EC50 was 0.5 nM.

Consider `Cc1nc(C)c2ccn([C@@H]3O[C@@H]4[C@H](Cc5ccc6cc(Br)c(N)nc6c5)CC[C@]4(O)[C@H]3O)c2n1` [Example 81, (2R,3R,3aS,6S,6aR)-6-((2-amino-3-bromoquinolin-7-yl)methyl)-2-(2,4-dimethyl-7H-pyrrolo[2,3-d]pyrimidin-7-yl)hexahydro-3aH-cyclopenta[b]furan-3,3a-diol], for which the EC50 was found to be 0.7 nM.

With `Nc1nc2cc(O[C@H]3CC[C@@]4(O)[C@@H]3O[C@@H](n3ccc5c(N)ncnc53)[C@@H]4O)ccc2cc1C(F)F` [Example 128, (2R,3R,3aS,6S,6aR)-6-((2-amino-3-(difluoromethyl)quinolin-7-yl)oxy)-2-(4-amino-7H-pyrrolo[2,3-d]pyrimidin-7-yl)hexahydro-3aH-cyclopenta[b]furan-3,3a-diol], the EC50 amounted to 0.7 nM.

Regarding `Cc1cn([C@@H]2O[C@@H]3[C@H](Cc4ccc5cc(F)c(N)nc5c4)CC[C@]3(O)[C@H]2O)c2ncnc(N)c12` [Example 62, (2R,3R,3aS,6S,6aR)-6-((2-amino-3-fluoroquinolin-7-yl)methyl)-2-(4-amino-5-methyl-7H-pyrrolo[2,3-d]pyrimidin-7-yl)hexahydro-3aH-cyclopenta[b]furan-3,3a-diol 2,2,2-trifluoroacetate], the EC50 worked out at 0.5 nM.

Take `Cc1ncnc2c1ccn2[C@@H]1O[C@@H]2[C@@H](Oc3ccc4cc5c(nc4c3)NCC5)CC[C@]2(O)[C@H]1O` [Example 89, (2R,3R,3aS,6S,6aR)-6-((2,3-dihydro-1H-pyrrolo[2,3-b]quinolin-7-yl)oxy)-2-(4-methyl-7H-pyrrolo[2,3-d]pyrimidin-7-yl)hexahydro-3aH-cyclopenta[b]furan-3,3a-diol]: the EC50 was found to be 1.3 nM.

In the case of `Nc1nc2cc(C[C@@H]3CC[C@@]4(O)[C@@H]3O[C@@H](n3ccc5c(N)ncnc53)[C@@H]4O)ccc2cc1Br` [Example 9, (2R,3R,3aS,6S,6aR)-6-((2-amino-3-bromoquinolin-7-yl)methyl)-2-(4-amino-7H-pyrrolo[2,3-d]pyrimidin-7-yl)hexahydro-2H-cyclopenta[b]furan-3,3a-diol], the EC50 worked out at 0.3 nM.

Take `C[C@]1(COc2ccc3ccc(N)nc3c2)C[C@@H](n2ccc3c(N)ncnc32)[C@H](O)[C@@H]1O` [Example 101, (1S,2R,3R,5R)-5-(4-amino-7H-pyrrolo[2,3-d]pyrimidin-7-yl)-3-(((2-aminoquinolin-7-yl)oxy)methyl)-3-methylcyclopentane-1,2-diol]: the EC50 amounted to 0.3 nM.

Consider `Cc1ncnc2c1c(F)cn2[C@@H]1O[C@@H]2[C@H](Cc3ccc4cc(Br)c(N)nc4c3)CC[C@]2(O)[C@H]1O` [Example 84, (2R,3R,3aS,6S,6aR)-6-((2-amino-3-bromoquinolin-7-yl)methyl)-2-(5-fluoro-4-methyl-7H-pyrrolo[2,3-d]pyrimidin-7-yl)hexahydro-3aH-cyclopenta[b]furan-3,3a-diol], for which the EC50 amounted to 0.6 nM.

`Nc1nc2cc(C[C@@H]3CC[C@@]4(O)[C@@H]3O[C@@H](n3ccc5c(N)ncnc53)[C@@H]4O)ccc2cc1F` [Example 124, (2R,3R,3aS,6S,6aR)-6-((2-amino-3-fluoroquinolin-7-yl)methyl)-2-(4-amino-7H-pyrrolo[2,3-d]pyrimidin-7-yl)hexahydro-3aH-cyclopenta[b]furan-3,3a-diol]: the EC50 stood at 0.3 nM.

Staying with this assay, now noted: second EC50 of 7 parameters biphasic model; 1.0 nM PRMT5-MEP50, 75 nM biotinylated peptide, 15 μM SAM; read-out: Enzyme Methylation Assay (EC50 2).
For the compound `Cc1ncnc2c1ccn2[C@@H]1O[C@@H]2[C@H](Oc3ccc4cc(Br)c(N)nc4c3)CC[C@]2(O)[C@H]1O` [Example 129, (2R,3R,3aS,6R,6aR)-6-((2-amino-3-bromoquinolin-7-yl)oxy)-2-(4-methyl-7H-pyrrolo[2,3-d]pyrimidin-7-yl)hexahydro-3aH-cyclopenta[b]furan-3,3a-diol], the EC50 amounted to 31600 nM.

Consider `C[C@]1(COc2ccc3cc(Br)c(N)nc3c2)O[C@@H](n2ccc3c(N)ncnc32)[C@H](O)[C@@H]1O` [Example 13, (2R,3S,4R,5R)-2-(((2-amino-3-bromoquinolin-7-yl)oxy)methyl)-5-(4-amino-7H-pyrrolo[2,3-d]pyrimidin-7-yl)-2-methyltetrahydrofuran-3,4-diol], for which the EC50 is 89 nM.
